Experimental data: patent publication EP4644383A1 (Jiangsu Yahong Meditech Co., Ltd., priority 2022, dated 2024)
Read-outs that look alike come from different tables or passages of the source.

Legend:
FGFR1 = molecular target: T1, FGFR1 (Homo sapiens, UniProt P11362); test: FGFR1 kinase activity inhibition assay (LanthaScreen TR-FRET); format: biochemical
T1 construct: cytoplasmic domain [398-822 (terminal) amino acids]; purchased Carna 08-133
How it was run: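 Emission ratio 520 nm/495 nm by TR-FRET after stopping reaction with 10 mM EDTA and 60 min incubation at 22°C. Inhibition normalized between no-enzyme (min) and DMSO (max) controls, then fitted to a four-parameter curve (Top, Bottom, HillSlope).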

FGFR3 = molecular target: T2, FGFR3 (Homo sapiens, UniProt P22607); test: FGFR3 kinase activity inhibition assay (LanthaScreen TR-FRET); format: biochemical; settings: for Selectivity (X) FGFR1/FGFR3: ratio of IC50 FGFR1/FGFR3, selectivity towards FGFR3; for Selectivity (X) FGFR2/FGFR3: ratio of IC50 FGFR2/FGFR3, selectivity towards FGFR3; for Selectivity (X) FGFR4/FGFR3: ratio of IC50 FGFR4/FGFR3, selectivity towards FGFR3
T2 construct: FGFR3's cytoplasmic domain [436-806 (terminal) amino acids]; purchased Carna 08-135
How it was run: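 Read-out is TR-FRET, with the 520 nm/495 nm emission ratio normalised to DMSO (max) and enzyme-free (min) controls. Enzyme was the FGFR3 cytoplasmic domain, residues 436-806. EDTA (10 mM) stopped the reaction, followed by 60 min at 22 °C before reading.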

Ba/F3-BCR-FGFR1 cells = test: Inhibition of proliferation activity of Ba/F3-BCR-FGFR1 cells (CellTiter-Glo); format: cell-based; settings: Ba/F3-BCR-FGFR1 cells, 72 hours, CTG; read-out: IC50 (nM) Ba/F3-BCR-FGFR1
Experimental: The present experiment used CellTiter-Glo® Luminescent Cell Viability Assay (Promega: G7573) kit, which was a homogeneous cell viability detection method and determined the cell viability of cultured cells by quantifying ATP. • ① Ba/F3-BCR-FGFR1 or Ba/F3-FGFR3-BAIAP2L1 cells were cultured in 1640 complete medium (Gibco: 11879020) (10% FBS (Gibco: 10091-148)+1% Pen Strep (Gibco: 15140122)) under the condition of 37°C and 5% CO2. • (2) The cells in logarithmic growth phase were harvested and counted using a […]. The trypan blue exclusion method was used to detect cell viability to ensure the cell viability was above 90%. • ③ The cell density was adjusted using 1640 complete medium, and then, the cells were seeded into a 96-well cell culture plate at 90 µL/well with a total of 2000 cells. • ④ A 10-fold drug solution was prepared starting from a maximum drug concentration of 10 µM and 4-fold serially diluted into10 concentrations. Then, 10 µL of each of the serially diluted compounds was transferred to the corresponding experimental wells of a 96-well cell plate, with two replicates for each drug concentration. • ⑤ The 96-well plate with the cells that had been treated with the drugs was placed under the condition of 37°C and 5% CO2 to be further cultured for 72 hours, and then analyzed by CTG. • ⑥ The CTG reagent was melted and the cell plate was equilibrated to room temperature for 30 minutes. • ⑦ 50 µL of the CTG solution was added to each well. • ⑧ The cell plate was shaken on an orbital shaker for 5 minutes to lyse the cells. • ⑨ The cell plate was placed at room temperature for 20 minutes to stabilize the luminescence signal. The luminescence values were read to collect the data. • ⑩ The data were analyzed using XLFit excel plugin version 5.5.0.5, and fitted with non-linear S-curve regression to obtain the dose-response curves and thus calculate the IC50 values. Y = Bottom + (Top-Bottom)/((1+(IC50/X))^(∧) HillSlope [formula]
"Top" refers to the maximum response, "Bottom" refers to the minimum response, and "HillSlope" refers to the slope of the curve.
"Max" represents the average value of the cell control+DMSO, and "Min" represents the average value of the medium control+DMSO.

[1] = FGFR1 kinase, TR-FRET, read-out: IC50 (nM) FGFR1
[2] = FGFR3 kinase, TR-FRET, read-out: IC50 (nM) FGFR3

T2 sequence (P22607 436-806): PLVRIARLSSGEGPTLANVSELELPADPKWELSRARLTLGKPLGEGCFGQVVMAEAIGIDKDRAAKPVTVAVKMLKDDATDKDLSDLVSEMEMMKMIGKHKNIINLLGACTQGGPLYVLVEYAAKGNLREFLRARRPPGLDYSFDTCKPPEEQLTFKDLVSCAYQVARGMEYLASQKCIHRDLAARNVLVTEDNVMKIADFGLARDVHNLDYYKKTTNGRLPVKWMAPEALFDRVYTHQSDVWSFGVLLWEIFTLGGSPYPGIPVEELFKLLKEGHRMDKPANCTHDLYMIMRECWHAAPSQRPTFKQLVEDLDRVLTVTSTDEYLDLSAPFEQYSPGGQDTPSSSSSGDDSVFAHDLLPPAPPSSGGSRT
T1 sequence (P11362 398-822): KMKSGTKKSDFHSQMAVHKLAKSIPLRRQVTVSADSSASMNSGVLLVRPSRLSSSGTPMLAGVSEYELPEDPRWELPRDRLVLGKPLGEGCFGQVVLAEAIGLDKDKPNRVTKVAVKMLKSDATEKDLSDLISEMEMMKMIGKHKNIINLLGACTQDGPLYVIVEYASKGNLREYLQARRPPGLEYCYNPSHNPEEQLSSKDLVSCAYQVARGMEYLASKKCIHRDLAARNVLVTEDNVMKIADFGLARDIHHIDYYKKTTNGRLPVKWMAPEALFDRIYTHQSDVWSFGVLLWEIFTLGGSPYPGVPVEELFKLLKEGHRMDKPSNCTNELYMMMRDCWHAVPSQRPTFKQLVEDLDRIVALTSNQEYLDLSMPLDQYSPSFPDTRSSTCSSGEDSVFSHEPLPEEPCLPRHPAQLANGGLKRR

Row | SMILES | IC50 (FGFR1; [1]) | IC50 (FGFR3; [2]) | Selectivity (X) FGFR1/FGFR3 (FGFR3) | Selectivity (X) FGFR2/FGFR3 (FGFR3) | Selectivity (X) FGFR4/FGFR3 (FGFR3) | IC50 (Ba/F3-BCR-FGFR1 cells) | IC50 (FGFR1) | IC50 (FGFR3)
1 | CC(=O)N1CC(n2cc(-c3n[nH]c4ccc(OC(C)c5cccc6nccnc56)cc34)cn2)C1 (stereo not shown) [Example 218, 1-(3-(4-(5-(1-(quinoxalin-5-yl)ethoxy)-1H-indazol-3-yl)-1H-pyrazol-1-yl)azetidin-1-yl)ethan-1-one] | 10 to 100 nM | < 1 nM | B (B represents 20 ≤ multiple X<50) | A (A represents 1 ≤ multiple X<20) | B (B represents 20 ≤ multiple X<50) | 441 nM |  | 
2 | CC(Oc1cc2c(-c3cnn(C)c3)n[nH]c2cc1F)c1cc(Cl)cc2nccnc12 (stereo not shown) [Example 227, 7-chloro-5-(1-((6-fluoro-3-(1-methyl-1H-pyrazol-4-yl)-1H-indazol-5-yl)oxy)ethyl)qu inoxaline] | 1 to 10 nM | < 1 nM | A (A represents 1 ≤ multiple X<20) |  |  | 390 nM |  | 
3 | CC(Oc1ccc2[nH]nc(-c3cnn(C)c3)c2c1)c1nc(C(F)F)cc2nccnc12 (stereo not shown) [Example 236, 7-(difluoromethyl)-5-(1-((3-(1-methyl-1H-pyrazol-4-yl)-1H-indazol-5-yl)oxy)ethyl)pyridino[3,4-b]pyrazine] | 1 to 10 nM | < 1 nM | A (A represents 1 ≤ multiple X<20) | A (A represents 1 ≤ multiple X<20) | C (C represents 50 ≤ multiple X<100) | 161 nM |  | 
4 | [2H]C([2H])([2H])c1cc2nccnc2c(C(C)Oc2ccc3[nH]nc(-c4cnn(C)c4)c3c2)n1 (stereo not shown) [Example 241] |  |  | B (B represents 20 ≤ multiple X<50) | A (A represents 1 ≤ multiple X<20) | A (A represents 1 ≤ multiple X<20) | 62.3 nM | 1 to 10 nM | < 1 nM
